Data: publication PMC6199744, “Development of Chemical Proteomics for the Folateome and Analysis of the Kinetoplastid Folateome” (ACS Infectious Diseases, 2018)
Where two headings read alike, the source gives them in different places.

Key:
[1] = test system: IRON/ASCORBATE OXIDOREDUCTASE FAMILY PROTEIN, PUTA (Tb427.02.6180); experiment: Multitargeted bead mixture competition; assay type: binding, T. brucei; conditions: for fold change: PUTATIVE
[2] = target: DIHYDROFOLATE REDUCTASE-T[…] (TB427.07.5480) (Trypanosoma brucei brucei, UniProt Q27783); experiment: Multitargeted bead mixture competition; assay type: binding; conditions: for fold change vs vehicle control: vehicle control = 1
[3] = target: variant surface glycoprotein 221 (VSM2.TRYBB) (Trypanosoma brucei brucei, UniProt P26332); assay type: binding, T. brucei; conditions: for fold change / fold change - vehicle control: protein VSM2_TRYBB VARIANT SURFACE GL[…] 1.2; for fold change: vehicle control = 1
DHCH = experiment: Multitargeted bead mixture competition; assay type: binding, L. major; conditions: CYTOPLASMIC, PUTATIVE; for fold change: vehicle control = 1
[4] = target: inosine-5′-monophosphate dehydrogenase (Tb927.10.16120) (Trypanosoma brucei brucei, UniProt P50098); experiment: Multitargeted bead mixture competition; assay type: binding, T. brucei; conditions: for fold change: protein TB927.10.16120 INOSINE-5'-MONOPHOSPHATE DEHYDROGENASE, vehicle control = 1
methylene-THF-reductase = methylene-THF-reductase (Homo sapiens, UniProt P42898); experiment: Multitargeted bead mixture competition, HeLa cell extract; assay type: binding
[5] = test system: dynein associated protein (Tb09.211.4920); experiment: Multitargeted bead mixture competition; assay type: binding, T. brucei; conditions: for fold change / fold change - vehicle control: protein TB09.211.4920 DYNEIN-ASSOCIATED PROTEIN, PUTATIVE; for fold change: vehicle control = 1
DHFR = target: T1, DHFR (Homo sapiens, UniProt P00374); experiment: Multitargeted bead mixture competition, HeLa cell extract; assay type: binding
T1 sequence (P00374 1-187): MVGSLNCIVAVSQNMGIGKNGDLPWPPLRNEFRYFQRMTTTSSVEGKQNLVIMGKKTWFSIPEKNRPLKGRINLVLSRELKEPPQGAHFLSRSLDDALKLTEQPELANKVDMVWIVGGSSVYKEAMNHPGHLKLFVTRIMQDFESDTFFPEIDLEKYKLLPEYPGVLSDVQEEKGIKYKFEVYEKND

PTR1 = target: T2, PTR1 (Leishmania major, UniProt Q01782); assay type: binding; parameters: endogenous in cells; host or cells: L. major Friedlin promastigote lysate
T2 sequence (Q01782 1-288): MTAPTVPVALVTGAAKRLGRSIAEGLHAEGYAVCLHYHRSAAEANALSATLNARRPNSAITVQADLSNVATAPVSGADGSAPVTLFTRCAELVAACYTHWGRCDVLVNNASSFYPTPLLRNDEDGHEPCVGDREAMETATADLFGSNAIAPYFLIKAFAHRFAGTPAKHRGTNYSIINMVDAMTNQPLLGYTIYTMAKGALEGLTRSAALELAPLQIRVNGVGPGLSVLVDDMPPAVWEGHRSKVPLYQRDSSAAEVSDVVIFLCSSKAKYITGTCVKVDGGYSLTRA

[6] = protein TB427.02.6180 IRON/ASCORBATE OXIDOREDUCTASE FAMILY PROTEIN, vehicle control = 1
[7] = protein TB427.07.5480 DIH[…]-T[…]
[8] = protein LMJF.26.0320 C-1-TETRAHYDROFOLATE SYNTHASE
[9] = HeLa, protein DHFR (SIMILAR TO DIHYDROFOLATE REDUCTASE ISOFORM 2, PARTIAL)
[10] = vs vehicle control, protein LMJF.23.0270 PTERIDINE REDUCTASE 1
[11] = protein TB427.02.6180 IRON/ASCORBATE OXID[…] PROTEIN, vehicle control = 1
[12] = bead mixture, T. brucei lysates
[13] = protein LMJF.26.0320 C-1-TETRAH[…]
[14] = relative to vehicle control = 1, protein TB427.02.6180 IRON/ASCORBATE OXIDOREDUCTASE FAMILY PROTEIN
[15] = LMJF.23.0270 PTERIDINE REDUCTASE 1, vehicle control = 1

What does the source list for `Nc1nc2c(c(=O)[nH]1)N(C=O)C(CNc1ccc(C(=O)N[C@@H](CCC(=O)O)C(=O)O)cc1)CN2` (some centres unmarked) [LEU, leucovorin]?
fold change [1, 6]: 0.92; fold change vs vehicle control [2, 7]: 1.45; fold change [3]: 3.08; fold change (DHCH; [8]): 0.98; fold change [4]: 1.11; fold changes relative to vehicle control (methylene-THF-reductase; protein MTHFR, HeLa): 0.52; fold change [5]: 0.78; fold changes relative to vehicle control (DHFR; [9]): 2.72; fold change (PTR1; [10]): 1.04

Which results are given for `Nc1nc2[nH]cc(CCc3ccc(C(=O)N[C@@H](CCC(=O)O)C(=O)O)cc3)c2c(=O)[nH]1` [PTX, pemetrexed]?
fold change [1, 11]: 0.95; fold change vs vehicle control ([2]; protein TB427.07.5480 DIHYDROFOLATE REDUCTASE-T[…]): 1.19; binding to variant surface glycoprotein 221 (VSM2.TRYBB) [3, 12]: bound specifically; fold change [3]: 0.39; fold change (DHCH; [13]): 0.79; binding to inosine-5′-monophosphate dehydrogenase (Tb927.10.16120) [4, 12]: appeared to bind; fold change [4]: 0.49; fold changes relative to vehicle control (methylene-THF-reductase): 0.47; binding to dynein associated protein (Tb09.211.4920) [5, 12]: bound specifically; fold change [5]: 0.9; binding to DHFR (DHFR): did not appear to bind DHFR; fold changes relative to vehicle control (DHFR): 1.09; fold change (PTR1): 0.52

`CCCCCCOc1ccc(Cc2cnc(N)nc2N)cc1` [compound 1] was tested. Which fold change [1, 14] did it give?
The fold change was 0.85.

And the “fold change - vehicle control” value [2, 7]?
The value was 1.45.

What about the “fold change - vehicle control” value [3] of the same compound?
The value was 1.43.

And the “fold change vs vehicle control” value (DHCH; [8])?
Its value is 0.93.

What about the fold change [4] of the same compound?
Its fold change is 0.93.

What about the “fold changes relative to vehicle control” value (methylene-THF-reductase; captured protein MTHFR, HeLa) of the same compound?
Its value is 0.27.

And the “fold change - vehicle control” value [5]?
Its value is 0.67.

And the “binding to DHFR” value (DHFR; bead mixture, HeLa cell extract)?
Its value is “found to bind DHFR”.

And the “fold changes relative to vehicle control” value (DHFR; captured protein DHFR, HeLa)?
Its value is 0.46.

And the fold change (PTR1; [15])?
Its fold change is 1.1.

Which fold change [1, 14] does the source give for `CCCCCCOc1cccc(Cc2cnc(N)nc2N)c1` [compound 2] here?
Its fold change is 0.92.

What about the “fold change - vehicle control” value [2, 7] of the same compound?
The value was 1.44.

What about the “fold change - vehicle control” value [3] of the same compound?
Its value is 1.6.

What about the “fold change vs vehicle control” value (DHCH; [8]) of the same compound?
The value was 0.96.

What about the fold change [4] of the same compound?
The fold change was 1.03.

And the “fold changes relative to vehicle control” value (methylene-THF-reductase; captured protein MTHFR, HeLa)?
Its value is 0.58.

What about the “fold change - vehicle control” value [5] of the same compound?
The value was 0.91.

And the “fold changes relative to vehicle control” value (DHFR; captured protein DHFR, HeLa)?
Its value is 2.77.

What about the fold change (PTR1; [15]) of the same compound?
Its fold change is 1.13.

For `Nc1nc2cccc(-c3ccccc3)c2n1Cc1ccc(Cl)c(Cl)c1` [compound 3], which “percentage of competition from bead binding” value ([1]; multitargeted bead mixture, free ligand 100 μM, T. brucei lysate, Tb427.02.6180) is on record?
The value was 0%.

What about the fold change ([1]; relative to vehicle control = 1, protein TB427.02.6180 IRON/ASCORBATE OXID[…] PROTEIN) of the same compound?
Its fold change is 0.9.

And the “percentage of competition from bead binding” value ([2]; multitargeted bead mixture, free ligand 100 μM, T. brucei lysate, TB427.07.5480 DHFR-TS)?
Its value is -11%.

And the “fold change - vehicle control” value [2, 7]?
Its value is 0.98.

What about the “fold change - vehicle control” value [3] of the same compound?
Its value is 0.67.

What about the “fold change vs vehicle control” value (DHCH; [13]) of the same compound?
Its value is 0.96.

What about the fold change [4] of the same compound?
The fold change was 1.

And the “fold changes relative to vehicle control” value (methylene-THF-reductase; captured protein MTHFR, HeLa)?
The value was 1.06.

What about the “fold change - vehicle control” value [5] of the same compound?
Its value is 0.96.

And the “fold changes relative to vehicle control” value (DHFR; captured protein DHFR, HeLa)?
Its value is 1.13.

What about the fold change (PTR1; [15]) of the same compound?
The fold change was 0.99.

And the “competition for PTR1 (Figure 8a)” value (PTR1; bead mixture, L. major lysate)?
The value was “no inhibition of PTR1”.

Which fold change [1, 6] does the source give for `NCCOCCOCC(=O)Nc1nc2ncc(CNc3ccc(C(=O)NC(CCC(=O)O)C(=O)O)cc3)nc2c(=O)[nH]1` (centres unmarked) [compound 6] here?
The fold change was 0.28.

What about the “fold change vs vehicle control” value [2, 7] of the same compound?
The value was 1.09.

And the fold change [3]?
Its fold change is 2.16.

What about the fold change (DHCH; [8]) of the same compound?
Its fold change is 0.98.

And the fold change [4]?
The fold change was 1.

What about the “fold changes relative to vehicle control” value (methylene-THF-reductase; protein MTHFR, HeLa) of the same compound?
The value was 0.84.

And the fold change [5]?
Its fold change is 0.86.

And the “fold changes relative to vehicle control” value (DHFR; [9])?
Its value is 1.74.

What about the fold change (PTR1; [10]) of the same compound?
The fold change was 0.98.

For `NCCCNc1ccc(C(=O)NC(CCC(=O)O)C(=O)O)cc1` (centres unmarked) [compound 7], which fold change [1, 11] is on record?
The fold change was 1.02.

What about the “fold change vs vehicle control” value [2, 7] of the same compound?
The value was 0.98.

And the fold change [3]?
Its fold change is 0.81.

And the fold change (DHCH; [13])?
Its fold change is 1.06.

And the fold change [4]?
The fold change was 1.04.

And the “fold changes relative to vehicle control” value (methylene-THF-reductase; protein MTHFR, HeLa)?
The value was 1.

What about the fold change [5] of the same compound?
Its fold change is 0.68.

And the “fold changes relative to vehicle control” value (DHFR; [9])?
The value was 0.98.

And the fold change (PTR1; [10])?
The fold change was 1.02.
